Data as given in PMC9343874, “Comparative Pharmacokinetics of Cinobufacini Capsule and Injection by UPLC-MS/MS” (Frontiers in Pharmacology, 2022).
Like-named read-outs stand apart in the source and are kept apart here.

How the values were obtained:
[1] = Stability of analytes in rat plasma QC samples under storage conditions; type: physicochemical; conditions: n = 6; for Stability during 24 h at 4°C, RE: post-treatment storage in autosampler; for −80°C for 30 days, RE / Three freeze–thaw cycles, RE: rat plasma; for −80°C for 30 days, RE: long-term; for Three freeze–thaw cycles, RE: −80°C to room temperature
Method in brief: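 QC samples at low, medium and high levels (n=6) were tested after 24 h in the autosampler at 4 °C, after three freeze–thaw cycles from −80 °C to room temperature, and after 30 days at −80 °C. Concentrations were read from daily calibration curves. Stability was accepted when RE and RSD were within ±15% of nominal.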

[2] = Pharmacokinetic study in rats after intravenous administration of cinobufacini injection (UPLC-MS/MS of plasma); type: in vivo, rat
Protocol: Male Sprague–Dawley rats (weighing 200–220 g) of SPF grade were offered by Sippr/BK laboratory Animal, Corp., Ltd. (Shanghai, China) and fed in the Laboratory Animal Center of the Shanghai University of Traditional Chinese Medicine. All the rats were kept under environmentally controlled conditions with constant temperature (22–24°C) and humidity (60–65%). The animal experiment program in the present research was approved by the Animal Committee of the Shanghai University of Traditional Chinese Medicine (PZSHUTCM210618012).
An Agilent 1290 liquid chromatographic system includes a G4220A quaternary pump, a G1326C column incubator, a G4226A automatic sampler, and a G1330B degasser. The column temperature was set to 35°C. A measure of 5 µL of samples were separated in an Agilent SB-C18 column (2.1 mm ×50 mm, 1.8 μm) and eluted at 0.3 ml/min, followed by gradient elution with water (0.1% V/V formic acid) (A) and acetonitrile (B) (0–1 min, 20%–20% B; 1–3.5 min, 20%–80% B; 4–4.1 min, 80%-20% B; 4.1–6 min, 20% B). The total run time was 6 minutes.
An Agilent 1290 Infinity series UPLC system was combined with an Agilent 6460 series triple quadrupole mass spectrometer (Agilent Technologies, Santa Clara, CA, United States) to quantify all 13 analytes in an ESI-positive ionization mode. Quantitative analysis was performed in an MRM mode. The mass spectrum conditions were as follows: capillary voltage, 4000V; drying gas (N2), gas flow rate: 10 L/min; sprayer, 30 psi; gas temperature 350°C; The delta EMV (+) 200 V; collision gas (N2); dwell time, 25 ms. Agilent’s MassHunter Workstation software was used for data collection, peak area calculation, and quantitative analysis.
A measure of 50 µL of the plasma sample was mixed with 10 µL of the internal standard solution (345 ng/ml) in a 1.5-ml centrifuge tube and vortexed for 5 min. The samples were extracted by 500 µL of ethyl acetate for 5 min and centrifuged at 4°C for 10 min (18000 rpm). All the supernatants were collected into another 1.5-ml centrifuge tube, dried under a gentle stream of nitrogen at 37°C, and then added with 50 µL of 80% methanol for resolution. The resolution samples were centrifuged at 4°C for 10 min (18000 rpm), and 5 µL supernatant was extracted and injected for analysis.
Twenty-four male Sprague–Dawley rats (weigh 200–220 g) were divided into four groups with six rats in each group randomly, including three capsule groups at three different doses and one injection group. In the instructions for cinobufacini capsule and injection, the clinical dosage for adults is 2 g per 70 kg orally and 20 ml per 70 kg intravenously, converting to rat doses of 180 mg/kg and 1.8 ml/kg, respectively.
In the pre-experiments, we compared cinobufacini capsule of 180 mg/kg (one-time clinical dose) and 900 mg/kg (five times of clinical dose) and Cinobufacini injection of 1.8 ml/kg, but concentrations of some compounds in plasma were too low and difficult to be quantified. […] The experimental rats were led to fast the night and were free to get access to water for 12 h before the pharmacokinetic study. After administration, blood samples (approximately 150 μL) of rats were collected via retro-orbital sinus into heparinized centrifuge tubes at 0.05, 0.083, 0.25, 0.5, 0.75, 1, 2, 4, 6, 8, and 10 h. After centrifugation at 5,000 rpm for 10 min, the plasma was transferred to 1.5-ml polypropylene tubes and stored at −80°C until UPLC-MS/MS analysis.
GraphPad Prism software (version 8.0.2) was used to draw the mean plasma concentration–time curves of all analytes. The pharmacokinetic parameters were calculated by DAS 3.2.8 software. Meanwhile, the pharmacokinetic data on rats were presented as mean ± standard deviation (SD). Differences of pharmacokinetic parameters between groups were analyzed by the t-test using SPSS software (version 26.0). Differences were considered significant statistically when the p-values were <0.05 and very significant statistically when the p-values were <0.01.

[3] = Pharmacokinetic study in rats after oral administration of cinobufacini capsule (UPLC-MS/MS of plasma); type: in vivo, rat; conditions: male, Sprague-Dawley, in vivo, rat plasma, mean ± SD, n = 6; for CL/F: read-out: CLz/F (converted); for MRT last: read-out: MRT0-t; for MRT inf: read-out: MRT0-∞; for half-life: read-out: T1/2z (converted); for Vd/F: read-out: Vz/F
Method in brief: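 Male SD rats (200–220 g), fasted 12 h, six per group; cinobufacini capsule given orally at three doses or injection intravenously. Retro-orbital plasma sampled 0.05–10 h, extracted with ethyl acetate plus internal standard, quantified by UPLC-MS/MS (ESI+, MRM); parameters calculated by non-compartmental-style software as mean ± SD.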

[4] = high QC level (249.58–250.28 ng/ml)
[5] = medium QC level (49.92–50.06 ng/ml)
[6] = oral cinobufacini capsule 0.9 g/kg (low)
[7] = oral cinobufacini capsule 1.8 g/kg (medium)
[8] = oral cinobufacini capsule 3.6 g/kg (high)

Structure (SMILES) | Stability during 24 h at 4°C, RE [1, 4] [%] | Stability during 24 h at 4°C, RE ([1]; low QC level (4.99–5.00 ng/ml)) [%] | Stability during 24 h at 4°C, RE [1, 5] [%] | −80°C for 30 days, RE [1, 4] [%] | −80°C for 30 days, RE ([1]; low QC level (4.99–5.00 ng/ml)) [%] | −80°C for 30 days, RE [1, 5] [%] | Three freeze–thaw cycles, RE [1, 4] [%] | Three freeze–thaw cycles, RE ([1]; low QC level (4.99–5.00 ng/ml)) [%] | Three freeze–thaw cycles, RE [1, 5] [%] | AUC(0-inf) [3, 6] [ng·h/mL] | AUC(0-t) [3, 6] [ng·h/mL] | Cmax [3, 6] [ng/mL] | Tmax [3, 6] [min] | CL/F [3, 6] [mL/min/kg] | MRT last [3, 6] [min] | MRT inf [3, 6] [min] | half-life [3, 6] [min] | Vd/F [3, 6] [L/kg] | AUC(0-inf) [3, 7] [ng·h/mL] | AUC(0-t) [3, 7] [ng·h/mL] | other results
C[C@]12CC[C@H](O)C[C@H]1CC[C@@H]1[C@@H]2[C@H](O)C(=O)[C@]2(C)[C@@H](c3ccc(=O)oc3)CC[C@]12O [ABG, arenobufagin] | −4.1 | 7.4 | −5.3 | 2.3 | 7.1 | 8.3 | 0.7 | 2.5 | 3.3 | 15.5 ± 4.73 | 15.5 ± 4.73 | 13.8 ± 6.4 | 27 ± 16.2 | 109 | 86.4 ± 34.8 | 88.2 ± 36 | 49.2 ± 39.6 | 8.01 ± 5.68 | 45.9 ± 13.1 | 44.1 ± 10.6 | concentrations in most rat plasma samples relative to LLOQ ([2]; after intravenous administration of cinobufacini injection, pharmacokinetic parameters could not be calculated): far below the LLOQs; detection in rat plasma ([2]; cinobufacini injection group, intravenous): could be detected; Cmax [3, 7]: 36.7 ± 13.1 ng/mL; Tmax [3, 7]: 19.2 ± 7.2 min; CL/F [3, 7]: 71.2 mL/min/kg; MRT last [3, 7]: 89.4 ± 61.8 min; MRT inf [3, 7]: 104 ± 77.4 min; half-life [3, 7]: 38.4 ± 9.6 min; Vd/F [3, 7]: 4.2 ± 1.25 L/kg; AUC(0-inf) [3, 8]: 87.6 ± 27.8 ng·h/mL; AUC(0-t) [3, 8]: 87.3 ± 27.4 ng·h/mL; Cmax [3, 8]: 77.9 ± 24.2 ng/mL; Tmax [3, 8]: 19.2 ± 7.2 min; CL/F [3, 8]: 77.5 mL/min/kg; MRT last [3, 8]: 72 ± 15.6 min; MRT inf [3, 8]: 73.8 ± 18.6 min; half-life [3, 8]: 53.4 ± 38.4 min; Vd/F [3, 8]: 5.66 ± 3.45 L/kg
C[C@]12CC[C@H](O)C[C@@]1(O)CC[C@@H]1[C@@H]2CC[C@]2(C)[C@@H](c3ccc(=O)oc3)CC[C@]12O [TCG, telocinobufagin] | −4.7 | −0.3 | −4.2 | −2.1 | 0.9 | 3.8 | -6.6 | 5.8 | 0.0 | 24.5 ± 10.3 | 24.5 ± 10.3 | 35.2 ± 21 | 21.6 ± 12 | 128 | 38.4 ± 3.6 | 38.4 ± 3.6 | 9.6 ± 0.6 | 1.75 ± 0.6 | 89.9 ± 24.1 | 89.7 ± 23.8 | Cmax [3, 7]: 109 ± 41.3 ng/mL; Tmax [3, 7]: 17.4 ± 5.4 min; CL/F [3, 7]: 66.2 mL/min/kg; MRT last [3, 7]: 43.8 ± 6.6 min; MRT inf [3, 7]: 44.4 ± 6.6 min; half-life [3, 7]: 12.6 ± 6.6 min; Vd/F [3, 7]: 1.13 ± 0.37 L/kg; AUC(0-inf) [3, 8]: 217 ± 82.4 ng·h/mL; AUC(0-t) [3, 8]: 217 ± 82.4 ng·h/mL; Cmax [3, 8]: 253 ± 83.8 ng/mL; Tmax [3, 8]: 19.2 ± 7.2 min; CL/F [3, 8]: 60.3 mL/min/kg; MRT last [3, 8]: 49.8 ± 7.8 min; MRT inf [3, 8]: 49.8 ± 7.8 min; half-life [3, 8]: 31.8 ± 1.2 min; Vd/F [3, 8]: 2.76 ± 1.67 L/kg
